Three sequences from patent publication US10722563B2, “Prostate-specific tumor antigens and uses thereof” (SHENZHEN INNOVATION IMMUNOTECHNOLOGY CO., LTD., priority 2012, dated 2020) can be followed below.

Holding throughout (format): cell-based, human
In experiment [1] the test system is PBMCs of HLA-A2+ prostate cancer patients. Briefly: In vitro stimulation of peptide-specific T cells in PBMCs of prostate cancer patients, IFN-γ release by ELISA. Particulars: PBMCs stimulated in vitro with peptide; for induction of peptide-specific CTLs from PBMCs of prostate cancer patients: Table 3. Here is the method:
(§1) Ten HLA-A2+ prostate cancer patients and ten HLA-A2+ healthy subjects were enrolled in this study after written informed consent was obtained. All protocols were approved by the Institutional Review Board (IRB) of Baylor College of Medicine before commencing studies. 20 mL of peripheral blood was obtained from each person, and peripheral blood mononuclear cells (PBMCs) were isolated by density gradient centrifugation using Lymphoprep (Nycomed Pharma AS; Oslo, Norway). The freshly isolated PBMCs were cryopreserved for later use in 1 mL freezing medium containing 90% FCS and 10% dimethyl sulfoxide (DMSO) at −140° C. The expression of HLA-A2 molecules on PBMCs obtained from cancer patients and healthy subjects was verified by flow cytometry with FITC-labeled HLA-A2 mAb BB7.2 (BD Pharmingen, San Diego, Calif., USA).
(§2) PBMCs (1×10^5 cells/well) from either healthy subjects or prostate cancer patients were incubated with standard peptide concentrations of 20 μg/mL per peptide in 96-well U-bottom microplates (BD, Franklin Lakes, N.J., USA) in 200 μL of T-cell medium (TCM), consisting of RPMI 1640 (Mediatech, Manassas, Va., USA), 10% human AB serum (Valley Biomedical, Winchester, USA), 50 μM of 2-mercaptoethanol, 100 U/mL of interleukin-2 (IL-2), and 0.1 mM MEM nonessential amino acid solution (Invitrogen, Grand Island, N.Y., USA). Half of the TCM was removed and replaced with fresh TCM containing peptides (20 μg/mL) every 5 days. After 14 days of culture, the cells were harvested and tested for their ability to produce IFN-γ in response to T2 cells (1×10^4 cells/well), which were pre-loaded with either PSGR peptide (5 μg/mL) or a control peptide (an irrelevant HL-A2 binding peptide: NLLTHVESL) as a negative control. After 18 hours of incubation, supernatants were collected, and IFN-γ release was determined by ELISA assay.
(§3) Cytokine release was measured by coating 96-well ELISA plates (Thermo Fisher Scientific; Rochester, N.Y., USA) with 1 μg/mL anti-human IFN-γ (Pierce Biotechnology; Rockford, Ill., USA) overnight at 4° C. The plate was washed six times with PBS containing 0.05% Tween-20 (wash solution) to remove unbound coating antibody, and blocked with 1% BSA/PBS at room temperature for 2 hrs. Afterwards, 50 μL supernatant was added to each well and incubated at room temperature for 1 hr, then 50 μL of 0.5 μg/mL biotinylated anti-human IFN-γ (Pierce Biotechnology; Rockford, Ill., USA) was added and plates were incubated for an additional 1 hr at room temperature. After incubation, plates were washed and incubated for 30 min with Poly-HRP-Streptavidin (Thermo Fisher Scientific; Rochester, N.Y., USA) diluted 1:5000 in PBS/1% BSA. Plates were washed and 100 μL of TMB substrate solution (Sigma-Aldrich Co.; St. Louis, Mo., USA) was added per well. The colorimetric reaction was stopped using 2N H2SO4 and plates were read at 450 nm using an ELISA plate reader.
Since peptide-specific T cells against PSGR3, PSGR4 and PSGR14 were found in more than 70% of healthy subjects, we reasoned that CTL precursors that recognize these 3 peptides may also be high in PBMCs of prostate cancer patients. To test our hypothesis, we examined whether these three peptide candidates can induce peptide-specific CTLs from the PBMCs of HLA-A2+ prostate cancer patients. PBMCs from prostate cancer patients were collected and stimulated in vitro with PSGR3, PSGR4 or PSGR14 peptides.

Experiment [2] concerns PBMCs of ten HLA-A2+ healthy subjects. Briefly: In vitro stimulation of peptide-specific T cells in PBMCs of healthy subjects, IFN-γ release by ELISA. The following applies: for healthy subjects in which the peptide induced T cell responses: 10 HLA-A2+ healthy donors, IFN-γ ELISA after 2 weeks of peptide stimulation; for concentrations of IFN-γ in the supernatants: PBMCs stimulated 14 days with peptide 20 μg/mL, response to T2 cells pre-loaded with peptide 5 μg/mL. How it is done:
as §1, §2, §3
To determine whether PSGR-reactive T cell precursors are present in healthy subjects, we obtained PBMCs from 10 HLA-A2+ healthy donors and stimulated them in vitro with each of the 21 PSGR-derived peptides containing HLA-A2-binding motif (Table 1). After 2 weeks of peptide stimulation, supernatants from peptide-stimulated T cells were analyzed by ELISA assay to detect IFN-γ release in response to T2 cells pulsed with or without corresponding peptides.
A general note: An ELISA detects its analyte on a solid surface through an enzyme-linked reagent.

A further experiment concerns LNCaP cells. Briefly: Cytotoxicity of PSGR peptide-specific T cells by LDH assay against LNCaP. The following applies: HLA-A2 positive, PSGR expressing LNCaP; T cells from healthy donors and patients; FIG. 2B. How it is done:
The expression of PSGR mRNA in different cell lines was determined by RT-PCR (A). PSGR derived peptide-specific T cells were tested for cytotoxicity against both PC3 and LNCaP by the LDH assay (B). Data from B are plotted as means±SD. Results are representative of three independent experiments. *P<0.05, versus control.
Cells were stained with anti-CD8 and anti-IFN-γ, then analyzed on a FACScalibur machine (A). PSGR-derived peptide-specific T cells were co-incubated with LNCaP cells alone in medium, or with LNCaP cells in the presence of either anti-HLA-I mAb (W6/32), HLA-II mAb or a control mAb (anti-CD19 mAb). After 4 hours of incubation, the cytotoxicity against LNCaP was determined by the LDH assay (B). Data from B are plotted as means±SD. Results are representative of three independent experiments. *P<0.05, versus controls.
PSGR derived peptide-specific T cells were tested for cytotoxicity against both PC3 and LNCaP by a lactate dehydrogenase (LDH) assay (Promega; Madison, Wis., USA). The assay was performed in accordance with the manufacturer's instructions. LDH release was calculated based on the following formula: Cytotoxicity (%)=(Experimental−Effector Spontaneous−Target Spontaneous LDH release)/(Target Maximum−Target Spontaneous LDH release)×100.
Spontaneous release was determined by using the supernatant of the target cells alone or effector cells alone, and the maximum release was determined by using the supernatant of target cells incubated with a lysis solution included in LDH kit. To determine if T cell recognition is HLA-I restricted, anti-HLA-I, anti-HLA-II, or anti-CD19 mAb (all from ATCC, Manassas, Va., USA) were added into wells at the initiation of the culture.

Take ILANIYLLV (PSGR3): the “induction of peptide-specific CTLs from PBMCs of prostate cancer patients” value (“induction of peptide-specific CTLs” for short) in experiment [1] is listed as “indeed induced peptide-specific CTLs”. Besides, the “concentrations of IFN-γ in the supernatants” value (“concentrations of IFN-γ” for short) in experiment [1] (prostate cancer patient #2) amounted to 525 pg/mL; in experiment [1] (prostate cancer patient #3), 503 pg/mL; in experiment [1] (prostate cancer patient #12) it was 326 pg/mL; in experiment [1] (prostate cancer patient #13), 217 pg/mL; in experiment [1] (prostate cancer patient #14) it was 0 pg/mL; in experiment [1] (prostate cancer patient #15) it was 282 pg/mL. In addition, the “concentrations of IFN-γ” value in experiment [1] (prostate cancer patient #16) amounted to 35 pg/mL; in experiment [1] (prostate cancer patient #17), 156 pg/mL; in experiment [1] (prostate cancer patient #22), 103 pg/mL; in experiment [1] (prostate cancer patient #25), 22 pg/mL; in experiment [2] (healthy subject #1) it was 127 pg/mL; in experiment [2] (healthy subject #2), 398 pg/mL. For the same sequence, the “concentrations of IFN-γ” value in experiment [2] (healthy subject #3) worked out at 393 pg/mL; in experiment [2] (healthy subject #4), 768 pg/mL; in experiment [2] (healthy subject #5) it was 227 pg/mL; in experiment [2] (healthy subject #6), 183 pg/mL; in experiment [2] (healthy subject #7) it was 645 pg/mL; in experiment [2] (healthy subject #8), 0 pg/mL. The “concentrations of IFN-γ” value in experiment [2] (healthy subject #9) was determined as 394 pg/mL; in experiment [2] (healthy subject #10) it was 0 pg/mL. The “healthy subjects in which the peptide induced T cell responses” value (shortened to “healthy subjects”) in experiment [2] is recorded as 7 out of 10. In addition, in the experiment on LNCaP cells, the “recognition and killing of LNCaP by peptide-specific T cells” value (from here on “recognition and killing of LNCaP”) is “could recognize and kill”.

For VILANIYLLV (PSGR14), the “induction of peptide-specific CTLs” value in experiment [1] is recorded as “indeed induced peptide-specific CTLs”. Further, the “concentrations of IFN-γ” value is 344 pg/mL in experiment [1] (prostate cancer patient #2); 116 pg/mL in experiment [1] (prostate cancer patient #3); 272 pg/mL in experiment [1] (prostate cancer patient #12); 23 pg/mL in experiment [1] (prostate cancer patient #13); 0 pg/mL in experiment [1] (prostate cancer patient #14); 24 pg/mL in experiment [1] (prostate cancer patient #15). Also, the “concentrations of IFN-γ” value in experiment [1] (prostate cancer patient #16) was determined as 0 pg/mL; in experiment [1] (prostate cancer patient #17), 100 pg/mL; in experiment [1] (prostate cancer patient #22), 8 pg/mL; in experiment [1] (prostate cancer patient #25), 11 pg/mL; in experiment [2] (healthy subject #1), 471 pg/mL; in experiment [2] (healthy subject #2) it was 0 pg/mL. In addition, the “concentrations of IFN-γ” value came to 115 pg/mL in experiment [2] (healthy subject #3); 0 pg/mL in experiment [2] (healthy subject #4); 124 pg/mL in experiment [2] (healthy subject #5); 296 pg/mL in experiment [2] (healthy subject #6); 843 pg/mL in experiment [2] (healthy subject #7); 0 pg/mL in experiment [2] (healthy subject #8). Besides, the “concentrations of IFN-γ” value is 346 pg/mL in experiment [2] (healthy subject #9) and 854 pg/mL in experiment [2] (healthy subject #10). For the same sequence, the “healthy subjects” value in experiment [2] is 7 out of 10. Moreover, the “recognition and killing of LNCaP” value in the experiment with LNCaP cells was “could recognize and kill”.

Regarding WLAFPLCSL (PSGR4), the “induction of peptide-specific CTLs” value in experiment [1] was “indeed induced peptide-specific CTLs”. The “concentrations of IFN-γ” value is 451 pg/mL in experiment [1] (prostate cancer patient #2); 351 pg/mL in experiment [1] (prostate cancer patient #3); 0 pg/mL in experiment [1] (prostate cancer patient #12); 301 pg/mL in experiment [1] (prostate cancer patient #13); 309 pg/mL in experiment [1] (prostate cancer patient #14); 70 pg/mL in experiment [1] (prostate cancer patient #15). The “concentrations of IFN-γ” value in experiment [1] (prostate cancer patient #16) turned out to be 6.7 pg/mL; in experiment [1] (prostate cancer patient #17), 102 pg/mL; in experiment [1] (prostate cancer patient #22) it was 56 pg/mL; in experiment [1] (prostate cancer patient #25), 27 pg/mL; in experiment [2] (healthy subject #1) it was 302 pg/mL; in experiment [2] (healthy subject #2), 152 pg/mL. The “concentrations of IFN-γ” value was 457 pg/mL in experiment [2] (healthy subject #3); 0 pg/mL in experiment [2] (healthy subject #4); 407 pg/mL in experiment [2] (healthy subject #5); 226 pg/mL in experiment [2] (healthy subject #6); 847 pg/mL in experiment [2] (healthy subject #7); 0 pg/mL in experiment [2] (healthy subject #8). Also, the “concentrations of IFN-γ” value worked out at 0 pg/mL in experiment [2] (healthy subject #9) and 459 pg/mL in experiment [2] (healthy subject #10). The “healthy subjects” value in experiment [2] is given as 7 out of 10. In addition, the “recognition and killing of LNCaP” value in the experiment on LNCaP cells was “could recognize and kill”.
